The source made the active and inactive calls. For most assays here, no stated cut-off is given here; in the data, actives have a measured IC50 and inactives only a lower limit.
What was measured:
[1] = HEK-293T cell viability reduction – luminescence, B-cell screen hits, cytotoxicity control for BCR NF-kB inhibitor project, dose response (AID 489021); type: functional, cell-based;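 further: HEK-293T cells carrying an NF-kB luciferase reporter; cells exposed to compound for about 14 hours before viability readout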
[2] = target: T1, Tyrosine-protein phosphatase non-receptor type 12 (Homo sapiens, UniProt Q05209); assay: SAR Selectivity Analysis of small molecule inhibitors of PEST using pCAP in a fluorescence assay. [Related pubchem assays (depositor defined):AID1779, AID1784, AID2135]; type: functional
T1 sequence (Q05209 whole entry): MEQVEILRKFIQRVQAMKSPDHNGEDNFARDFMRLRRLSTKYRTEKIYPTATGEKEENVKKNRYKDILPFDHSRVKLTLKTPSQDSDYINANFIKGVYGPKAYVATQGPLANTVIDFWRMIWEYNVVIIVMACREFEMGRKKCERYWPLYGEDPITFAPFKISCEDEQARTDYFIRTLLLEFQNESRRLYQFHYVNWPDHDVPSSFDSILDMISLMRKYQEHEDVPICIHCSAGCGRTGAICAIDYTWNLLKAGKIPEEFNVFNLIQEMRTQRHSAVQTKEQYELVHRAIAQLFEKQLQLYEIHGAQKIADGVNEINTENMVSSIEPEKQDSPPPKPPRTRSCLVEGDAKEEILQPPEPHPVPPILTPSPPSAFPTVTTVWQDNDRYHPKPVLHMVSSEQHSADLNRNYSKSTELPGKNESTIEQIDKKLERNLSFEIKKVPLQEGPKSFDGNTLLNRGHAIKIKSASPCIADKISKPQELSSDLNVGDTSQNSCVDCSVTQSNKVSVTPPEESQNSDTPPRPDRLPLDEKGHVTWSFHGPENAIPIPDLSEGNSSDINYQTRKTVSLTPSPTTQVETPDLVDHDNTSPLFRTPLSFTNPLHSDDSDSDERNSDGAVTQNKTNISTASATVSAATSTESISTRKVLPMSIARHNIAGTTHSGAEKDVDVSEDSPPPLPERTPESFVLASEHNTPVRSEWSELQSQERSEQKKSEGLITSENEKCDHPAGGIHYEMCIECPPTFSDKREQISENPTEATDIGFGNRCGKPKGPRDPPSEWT

[3] = target: T2, Tyrosine-protein phosphatase non-receptor type 22 (Homo sapiens, UniProt Q9Y2R2); type: functional;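 further: confirmatory dose-response retest of primary uHTS hits for inhibition of LYP phosphatase, measured by a fluorescence intensity read-out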
T2 sequence (Q9Y2R2 whole entry): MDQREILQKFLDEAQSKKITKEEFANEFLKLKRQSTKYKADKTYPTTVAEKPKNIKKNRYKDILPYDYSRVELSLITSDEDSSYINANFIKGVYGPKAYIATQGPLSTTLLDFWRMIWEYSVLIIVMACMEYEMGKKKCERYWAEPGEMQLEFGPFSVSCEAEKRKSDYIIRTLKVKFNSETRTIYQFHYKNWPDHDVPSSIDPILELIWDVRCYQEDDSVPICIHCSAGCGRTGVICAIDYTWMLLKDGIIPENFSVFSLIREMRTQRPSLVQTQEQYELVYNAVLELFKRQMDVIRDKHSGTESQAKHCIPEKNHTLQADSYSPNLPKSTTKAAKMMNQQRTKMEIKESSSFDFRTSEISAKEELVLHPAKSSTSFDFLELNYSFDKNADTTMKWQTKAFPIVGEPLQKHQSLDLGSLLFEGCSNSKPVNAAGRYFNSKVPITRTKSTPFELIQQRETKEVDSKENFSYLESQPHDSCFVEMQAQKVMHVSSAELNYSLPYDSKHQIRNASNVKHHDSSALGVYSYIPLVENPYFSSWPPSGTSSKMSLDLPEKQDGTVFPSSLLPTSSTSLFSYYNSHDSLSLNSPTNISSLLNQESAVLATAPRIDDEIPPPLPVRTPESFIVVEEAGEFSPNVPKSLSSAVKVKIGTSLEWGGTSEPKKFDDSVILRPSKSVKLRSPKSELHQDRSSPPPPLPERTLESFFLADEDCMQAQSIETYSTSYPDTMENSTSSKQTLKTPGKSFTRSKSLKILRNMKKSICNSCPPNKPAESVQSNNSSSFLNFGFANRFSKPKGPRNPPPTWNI

[4] = target: T3, Voltage-gated N-type calcium channel alpha-1B subunit/Amyloid beta A4 precursor protein-binding family A member 1 (Homo sapiens, UniProt Q00975+Q02410); type: protein assay
T3 sequence (Q00975 whole entry): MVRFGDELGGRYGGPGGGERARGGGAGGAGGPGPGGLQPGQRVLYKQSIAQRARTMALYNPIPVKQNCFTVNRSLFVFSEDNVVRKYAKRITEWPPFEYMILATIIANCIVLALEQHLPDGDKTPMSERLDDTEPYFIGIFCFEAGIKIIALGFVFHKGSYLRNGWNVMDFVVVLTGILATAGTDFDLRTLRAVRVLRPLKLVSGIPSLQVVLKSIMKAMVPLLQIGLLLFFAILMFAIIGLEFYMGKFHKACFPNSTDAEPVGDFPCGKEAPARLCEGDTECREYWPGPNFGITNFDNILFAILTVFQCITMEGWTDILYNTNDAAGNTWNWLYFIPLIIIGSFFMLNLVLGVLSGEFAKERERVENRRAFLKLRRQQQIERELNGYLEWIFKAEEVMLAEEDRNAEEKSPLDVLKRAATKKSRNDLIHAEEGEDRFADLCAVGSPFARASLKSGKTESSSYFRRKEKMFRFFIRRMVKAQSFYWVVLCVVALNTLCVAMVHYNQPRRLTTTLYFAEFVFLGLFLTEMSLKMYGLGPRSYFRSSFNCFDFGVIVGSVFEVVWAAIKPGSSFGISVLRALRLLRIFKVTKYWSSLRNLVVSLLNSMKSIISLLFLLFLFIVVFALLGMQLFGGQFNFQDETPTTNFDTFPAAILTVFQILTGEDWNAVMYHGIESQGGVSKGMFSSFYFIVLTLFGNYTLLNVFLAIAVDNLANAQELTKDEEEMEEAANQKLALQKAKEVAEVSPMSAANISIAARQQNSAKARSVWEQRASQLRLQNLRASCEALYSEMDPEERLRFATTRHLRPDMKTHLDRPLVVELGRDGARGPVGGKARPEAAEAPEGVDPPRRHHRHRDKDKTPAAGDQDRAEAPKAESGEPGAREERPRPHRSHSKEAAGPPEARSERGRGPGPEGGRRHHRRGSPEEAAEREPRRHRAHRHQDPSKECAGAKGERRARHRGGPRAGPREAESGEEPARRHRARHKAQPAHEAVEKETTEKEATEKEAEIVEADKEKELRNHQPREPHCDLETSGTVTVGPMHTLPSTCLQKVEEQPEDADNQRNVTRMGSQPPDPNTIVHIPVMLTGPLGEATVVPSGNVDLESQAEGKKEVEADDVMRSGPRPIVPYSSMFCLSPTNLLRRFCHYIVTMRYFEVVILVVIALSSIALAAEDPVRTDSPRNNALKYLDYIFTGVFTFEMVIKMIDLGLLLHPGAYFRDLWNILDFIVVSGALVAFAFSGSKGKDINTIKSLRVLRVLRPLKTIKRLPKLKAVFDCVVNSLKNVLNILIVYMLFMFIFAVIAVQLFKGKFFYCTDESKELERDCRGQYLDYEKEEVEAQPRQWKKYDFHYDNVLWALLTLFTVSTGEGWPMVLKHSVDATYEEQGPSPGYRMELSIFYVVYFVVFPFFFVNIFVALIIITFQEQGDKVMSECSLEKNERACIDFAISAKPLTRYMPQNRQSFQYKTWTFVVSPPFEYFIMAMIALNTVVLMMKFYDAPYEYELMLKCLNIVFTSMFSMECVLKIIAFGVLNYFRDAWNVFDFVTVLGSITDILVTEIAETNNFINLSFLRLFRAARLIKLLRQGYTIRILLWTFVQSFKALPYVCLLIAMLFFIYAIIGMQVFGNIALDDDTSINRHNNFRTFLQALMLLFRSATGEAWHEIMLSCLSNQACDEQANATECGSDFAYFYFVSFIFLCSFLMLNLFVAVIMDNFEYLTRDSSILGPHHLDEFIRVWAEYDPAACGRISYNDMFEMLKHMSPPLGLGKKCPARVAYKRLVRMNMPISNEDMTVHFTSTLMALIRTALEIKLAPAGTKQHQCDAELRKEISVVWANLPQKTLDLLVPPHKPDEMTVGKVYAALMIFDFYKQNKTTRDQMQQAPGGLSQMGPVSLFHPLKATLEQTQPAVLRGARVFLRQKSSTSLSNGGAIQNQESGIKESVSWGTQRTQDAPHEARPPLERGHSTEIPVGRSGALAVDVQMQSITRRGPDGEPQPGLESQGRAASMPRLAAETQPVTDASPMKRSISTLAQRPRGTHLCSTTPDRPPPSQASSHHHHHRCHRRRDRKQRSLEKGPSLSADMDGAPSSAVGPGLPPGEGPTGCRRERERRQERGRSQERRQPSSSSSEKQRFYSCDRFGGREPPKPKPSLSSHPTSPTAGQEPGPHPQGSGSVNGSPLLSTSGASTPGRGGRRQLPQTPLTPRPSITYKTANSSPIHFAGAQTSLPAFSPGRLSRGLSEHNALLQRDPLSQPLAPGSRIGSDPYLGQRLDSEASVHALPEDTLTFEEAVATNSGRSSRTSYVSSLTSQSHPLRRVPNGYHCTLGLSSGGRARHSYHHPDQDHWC
T3 sequence (Q02410 whole entry): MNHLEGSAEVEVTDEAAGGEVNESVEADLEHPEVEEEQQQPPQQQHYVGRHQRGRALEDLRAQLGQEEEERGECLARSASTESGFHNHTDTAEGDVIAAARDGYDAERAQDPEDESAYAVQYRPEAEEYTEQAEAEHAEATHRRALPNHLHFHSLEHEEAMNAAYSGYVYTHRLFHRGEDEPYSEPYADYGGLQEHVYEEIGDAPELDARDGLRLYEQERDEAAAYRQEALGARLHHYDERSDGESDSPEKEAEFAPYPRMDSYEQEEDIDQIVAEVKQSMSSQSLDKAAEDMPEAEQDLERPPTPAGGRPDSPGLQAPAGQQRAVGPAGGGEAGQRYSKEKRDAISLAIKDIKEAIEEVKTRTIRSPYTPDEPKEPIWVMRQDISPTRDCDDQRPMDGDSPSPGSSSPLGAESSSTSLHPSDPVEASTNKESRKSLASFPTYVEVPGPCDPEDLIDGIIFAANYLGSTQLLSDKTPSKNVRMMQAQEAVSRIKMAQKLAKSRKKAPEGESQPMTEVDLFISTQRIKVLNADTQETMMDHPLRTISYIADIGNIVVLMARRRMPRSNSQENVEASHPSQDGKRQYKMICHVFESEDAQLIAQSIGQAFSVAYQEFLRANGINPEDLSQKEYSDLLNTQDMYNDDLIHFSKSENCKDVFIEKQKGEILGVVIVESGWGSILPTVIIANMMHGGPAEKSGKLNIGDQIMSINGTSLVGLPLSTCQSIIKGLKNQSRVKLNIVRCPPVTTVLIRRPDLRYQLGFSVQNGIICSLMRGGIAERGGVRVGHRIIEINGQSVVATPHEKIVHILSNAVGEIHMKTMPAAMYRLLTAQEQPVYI

[5] = target: T3, Voltage-gated N-type calcium channel alpha-1B subunit/Amyloid beta A4 precursor protein-binding family A member 1; type: protein assay; remark: listed apart in the source
[6] = Luminescent dose response cell-based high throughput screening assay for inhibitors of the Janus kinase 2 mutant JAK2V617F. [Related pubchem assays: 1446 (Primary screen.), 1521 (Confirmation assay.), 1486 (Counter screen.)]; type: functional
[7] = target: T4, Sentrin-specific protease 7 (Homo sapiens, UniProt Q9BQF6); type: functional;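 further: Luminescence-based dose-response confirmation of ultra-high-throughput screening hits, measuring inhibition of SENP7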
T4 sequence (Q9BQF6 whole entry): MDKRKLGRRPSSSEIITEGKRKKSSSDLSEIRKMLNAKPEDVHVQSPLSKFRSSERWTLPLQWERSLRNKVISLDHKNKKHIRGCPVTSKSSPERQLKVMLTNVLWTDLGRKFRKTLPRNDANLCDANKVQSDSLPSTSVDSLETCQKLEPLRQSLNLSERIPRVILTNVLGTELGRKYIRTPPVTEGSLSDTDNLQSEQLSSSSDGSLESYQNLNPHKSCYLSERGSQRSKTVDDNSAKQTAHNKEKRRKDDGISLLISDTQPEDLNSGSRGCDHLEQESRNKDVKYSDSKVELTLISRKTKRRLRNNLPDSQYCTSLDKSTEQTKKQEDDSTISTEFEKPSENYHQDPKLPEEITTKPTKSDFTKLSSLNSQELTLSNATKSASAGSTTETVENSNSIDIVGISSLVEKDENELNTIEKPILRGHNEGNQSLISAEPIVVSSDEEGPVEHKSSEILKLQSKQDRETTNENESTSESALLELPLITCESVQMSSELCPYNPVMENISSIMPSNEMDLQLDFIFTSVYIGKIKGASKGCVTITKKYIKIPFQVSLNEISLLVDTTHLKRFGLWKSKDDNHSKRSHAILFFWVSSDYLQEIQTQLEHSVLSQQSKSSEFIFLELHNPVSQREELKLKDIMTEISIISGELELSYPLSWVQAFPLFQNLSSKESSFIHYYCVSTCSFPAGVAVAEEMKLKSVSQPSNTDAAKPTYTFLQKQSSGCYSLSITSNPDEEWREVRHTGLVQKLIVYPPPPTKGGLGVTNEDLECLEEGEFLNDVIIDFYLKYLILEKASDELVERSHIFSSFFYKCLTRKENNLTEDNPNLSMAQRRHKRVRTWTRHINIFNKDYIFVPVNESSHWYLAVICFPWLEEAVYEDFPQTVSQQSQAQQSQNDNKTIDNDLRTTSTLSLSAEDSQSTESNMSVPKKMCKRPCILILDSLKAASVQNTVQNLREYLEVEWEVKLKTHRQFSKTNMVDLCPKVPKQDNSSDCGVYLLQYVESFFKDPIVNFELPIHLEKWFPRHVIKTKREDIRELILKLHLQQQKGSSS

Compound | IC50 [1] | IC50 [2] | IC50 [3] | IC50 [4] | IC50 [5] | IC50 [6] | IC50 [7]
COc1ccc(/C=C2\SC(=S)N(CCC(=O)Nc3ccc(C(=O)O)cc3)C2=O)cc1OC | > 80 µM (inactive) | 1.13 µM (active) | 2.75 µM (active) | > 50 µM (inactive) | 7.89 µM (active) | – | –
COc1ccc(Nc2ccc3c(c2)=NC2(CCCCC2)[N+]=3[O-])cc1 | – | – | – | – | – | 0.824 µM (active) | 9.21 µM (active)

— ChEMBL document CHEMBL1201862, “PubChem BioAssay data set” (2004)
